Experimental data published in PubChem BioAssay AID330 (DTP/NCI, 2004).
“And” between values parts separate entries of the source, which are not always exact repeats. Identical values can stand only once. Inconclusive results and toxic doses are left out. Rule for the calls: active = survival T/C of 150% or more; inactive = T/C below 125% in these data.

Test system: P388 leukemia ip, CD2F1 mice, survival T/C
Test: NCI In Vivo Anticancer Drug Screen. Data for tumor model P388 Leukemia (intraperitoneal) in CD2F1 (CDF1) mice
Conditions: endpoint: median survival time, higher = longer survival
In short: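 Mice carrying the transplanted tumor received test compound or vehicle. Survival was recorded in each group, and the value is the treated-group measurement divided by that of the vehicle-treated control group.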

[1] = dose: 50.0 mg/kg/injection, schedule: Q01DX005 (ip), vehicle: Klucel (hydroxypropylcellulose) (HPC)
[2] = dose: 100.0 mg/kg/injection, schedule: Q01DX005 (ip), vehicle: Klucel (hydroxypropylcellulose) (HPC)
[3] = dose: 200.0 mg/kg/injection, schedule: Q01DX005 (ip), vehicle: Klucel (hydroxypropylcellulose) (HPC)
[4] = dose: 50.0 mg/kg/injection, schedule: Q01DX005 (ip), vehicle: saline with Tween-80
[5] = dose: 100.0 mg/kg/injection, schedule: Q01DX005 (ip), vehicle: saline with Tween-80
[6] = dose: 200.0 mg/kg/injection, schedule: Q01DX005 (ip), vehicle: saline with Tween-80
[7] = dose: 25.0 mg/kg/injection, schedule: Q01DX005 (ip), vehicle: saline with Tween-80
[8] = dose: 12.5 mg/kg/injection, schedule: Q01DX005 (ip), vehicle: Klucel (hydroxypropylcellulose) (HPC)
[9] = dose: 10.0 mg/kg/injection, schedule: Q01DX009 (ip), vehicle: saline with Tween-80
[10] = dose: 40.0 mg/kg/injection, schedule: Q01DX009 (ip), vehicle: saline with Tween-80
[11] = dose: 12.5 mg/kg/injection, schedule: Q01DX009 (ip), vehicle: saline with Tween-80
[12] = dose: 25.0 mg/kg/injection, schedule: Q01DX009 (ip), vehicle: saline with Tween-80
[13] = dose: 50.0 mg/kg/injection, schedule: Q01DX009 (ip), vehicle: saline with Tween-80
[14] = dose: 12.5 mg/kg/injection, schedule: Q01DX005 (ip), vehicle: saline with Tween-80
[15] = dose: 60.0 mg/kg/injection, schedule: Q01DX005 (ip), vehicle: Klucel (hydroxypropylcellulose) (HPC)
[16] = dose: 120.0 mg/kg/injection, schedule: Q01DX005 (ip), vehicle: Klucel (hydroxypropylcellulose) (HPC)
[17] = dose: 240.0 mg/kg/injection, schedule: Q01DX005 (ip), vehicle: Klucel (hydroxypropylcellulose) (HPC)
[18] = dose: 100.0 mg/kg/injection, schedule: Q01DX009 (ip), vehicle: saline with Tween-80
[19] = dose: 200.0 mg/kg/injection, schedule: Q01DX009 (ip), vehicle: saline with Tween-80

Measured: T/C

CCCc1nnc2n1NC1(CS2)Nc2ccccc2N1
inactive: dose: 100.0 mg/kg/injection, schedule: Q01DX001 (ip), vehicle: saline with Tween-80 98 % of control | dose: 200.0 mg/kg/injection, schedule: Q01DX001 (ip), vehicle: saline with Tween-80 97 % of control | dose: 400.0 mg/kg/injection, schedule: Q01DX001 (ip), vehicle: saline with Tween-80 95 % of control

Clc1ncnc2c1ncn2C1C=CC=CC=C1
inactive: [1] 90 % of control | [2] 92 % of control | [3] 91 % of control

CCCCCCCCCCCCCCCC(CCCCCC)CCCCCC
inactive: dose: 50.0 mg/kg/injection, schedule: Q01DX001 (ip), vehicle: saline sonified 113 % of control | dose: 100.0 mg/kg/injection, schedule: Q01DX001 (ip), vehicle: saline sonified 100 % of control | dose: 200.0 mg/kg/injection, schedule: Q01DX001 (ip), vehicle: saline sonified 109 % of control

COC(=O)c1c(-c2ccc3c(c2)OCO3)cn(C)c1C
inactive: [4] 97 % of control | [5] 91 % of control | [6] 87 % of control

O=C(N1C2c3ccsc3[C@@H](O)C21)C(F)(F)F (some centres not stated)
inactive: [4] 88 % of control | [5] 95 % of control | [6] 100 % of control

O=[N+]([O-])c1ccc(N/N=C\c2c(Cl)n(-c3ccccc3)c3ccccc23)c([N+](=O)[O-])c1
inactive: [7] 106 % of control | [4] 100 % of control and 105 % of control | [5] 109 % of control and 117 % of control | dose: 100.0 mg/kg/injection, schedule: Q04DX003 (ip), vehicle: saline with Tween-80 90 % of control | [6] 109 % of control and 114 % of control | dose: 400.0 mg/kg/injection, schedule: Q04DX003 (ip), vehicle: saline with Tween-80 88 % of control

N=C(N)c1ccc(OCCCCCCOc2ccc(C(=N)N)cc2I)cc1
inactive: dose: 3.12 mg/kg/injection, schedule: Q01DX005 (ip), vehicle: Klucel (hydroxypropylcellulose) (HPC) 97 % of control | dose: 6.25 mg/kg/injection, schedule: Q01DX005 (ip), vehicle: Klucel (hydroxypropylcellulose) (HPC) 106 % of control | [8] 107 % of control and 97 % of control

CCN(CC)CCCNc1nnnc2ccccc12
inactive: dose: 100.0 mg/kg/injection, schedule: Q04DX002 (ip), vehicle: saline 103 % of control | dose: 200.0 mg/kg/injection, schedule: Q04DX002 (ip), vehicle: saline 90 % of control

CCCCCCCCCCCCCCCC[N+]1(CCCCCCCCCCCC)CCSCC1 (tested in a mixture with another compound)
inactive: [9] 112 % of control | [10] 121 % of control

CNC(=O)c1ccccc1CC1(O)c2ccccc2Oc2ccccc21
inactive: [1] 100 % of control | [2] 99 % of control | [3] 96 % of control

CCCCNC(=O)CCC(NS(=O)(=O)c1ccc(C)cc1)C(=O)NCCCC (configuration not stated)
inactive: [1] 93 % of control | [2] 100 % of control | [3] 93 % of control

O=C(NC(=S)c1ccc(Br)cc1)Nc1ccc(Cl)c(Cl)c1
inactive: [11] 96 % of control | [12] 98 % of control | [13] 106 % of control

CC(=O)Oc1cc(C)c(Cl)c2c(OC(C)=O)cc(C(C)=O)c(O)c12
inactive: dose: 50.0 mg/kg/injection, schedule: Q01DX009 (ip), vehicle: Klucel (hydroxypropylcellulose) (HPC) 91 % of control | dose: 100.0 mg/kg/injection, schedule: Q01DX009 (ip), vehicle: Klucel (hydroxypropylcellulose) (HPC) 91 % of control | dose: 200.0 mg/kg/injection, schedule: Q01DX009 (ip), vehicle: Klucel (hydroxypropylcellulose) (HPC) 90 % of control

Cc1cc(C(=O)Nc2ccc(NC3=NCCN3)cc2)c(C)cc1C(=O)Nc1ccc(NC2=NCCN2)cc1
inactive: [8] 101 % of control | dose: 25.0 mg/kg/injection, schedule: Q01DX005 (ip), vehicle: Klucel (hydroxypropylcellulose) (HPC) 106 % of control

O=C1NC(=O)N(/N=C/c2ccc(-c3ccc(Cl)c(Cl)c3)o2)C1O (configuration not stated)
inactive: dose: 50.0 mg/kg/injection, schedule: Q04DX002 (ip), vehicle: saline with Tween-80 100 % of control | dose: 100.0 mg/kg/injection, schedule: Q04DX002 (ip), vehicle: saline with Tween-80 99 % of control | dose: 200.0 mg/kg/injection, schedule: Q04DX002 (ip), vehicle: saline with Tween-80 101 % of control

CCOC(=O)COC(=O)C1C(C(N)=O)N(CC(=O)OCC)CCN1CC(=O)OCC (configuration not stated)
inactive: [4] 101 % of control | [5] 99 % of control | [6] 103 % of control

C[n+]1ccccc1C#N
inactive: dose: 12.5 mg/kg/injection, schedule: Q01DX009 (ip), vehicle: saline 109 % of control | dose: 25.0 mg/kg/injection, schedule: Q01DX009 (ip), vehicle: saline 104 % of control | dose: 50.0 mg/kg/injection, schedule: Q01DX009 (ip), vehicle: saline 104 % of control

CCC[CH2][Sn]1([CH2]CCC)[O]C(=O)CC[S]1
inactive: dose: 3.13 mg/kg/injection, schedule: Q01DX005 (ip), vehicle: saline with Tween-80 121 % of control | dose: 6.25 mg/kg/injection, schedule: Q01DX005 (ip), vehicle: saline with Tween-80 115 % of control and 120 % of control | [14] 121 % of control

CSC(=S)N/N=C(\Cc1ccccc1)c1ccccn1
inactive: [14] 103 % of control | [7] 106 % of control | [4] 99 % of control and 108 % of control | [5] 107 % of control | [6] 107 % of control

Nc1ccc2cc3ccccc3cc2c1
inactive: dose: 5.0 mg/kg/injection, schedule: Q01DX009 (ip), vehicle: saline with Tween-80 95 % of control | dose: 5.0 mg/kg/injection, schedule: Q04DX003 (ip), vehicle: saline with Tween-80 95 % of control | [9] 104 % of control | dose: 10.0 mg/kg/injection, schedule: Q04DX003 (ip), vehicle: saline with Tween-80 91 % of control | [11] 100 % of control | dose: 20.0 mg/kg/injection, schedule: Q01DX009 (ip), vehicle: saline with Tween-80 118 % of control | dose: 20.0 mg/kg/injection, schedule: Q04DX003 (ip), vehicle: saline with Tween-80 112 % of control | [12] 109 % of control | [10] 118 % of control | dose: 40.0 mg/kg/injection, schedule: Q04DX003 (ip), vehicle: saline with Tween-80 112 % of control | [13] 109 % of control

Cc1ccc(S(=O)(=O)NCc2cccc([N+](=O)[O-])c2)cc1
inactive: [15] 94 % of control | [16] 104 % of control | [17] 98 % of control

COc1ccc(/C=C2\C(=O)N(Cc3ccco3)SC2=S)c(OC)c1OC
inactive: [13] 90 % of control | [18] 90 % of control | [19] 106 % of control

Cc1cc(C)nc(NS(=O)(=O)c2ccc(N=NC3=C(O)C(c4ccccc4)N(c4ccccc4)C3=O)cc2)n1 (configuration not stated)
inactive: dose: 60.0 mg/kg/injection, schedule: Q01DX005 (ip), vehicle: saline 93 % of control | dose: 120.0 mg/kg/injection, schedule: Q01DX005 (ip), vehicle: saline 86 % of control

O=C1CCC(=O)N1CN(Cc1ccccc1)Cc1ccccc1
inactive: [15] 100 % of control | [16] 97 % of control | [17] 103 % of control

NC(=O)c1nnn(Cc2ccccc2)c1N
inactive: [12] 119 % of control | [13] 102 % of control | [18] 109 % of control | [19] 106 % of control | dose: 400.0 mg/kg/injection, schedule: Q01DX009 (ip), vehicle: saline with Tween-80 110 % of control

O=C(O)/C=C\C(=O)Nc1ccccc1NC(=O)/C=C/C(=O)O
inactive: dose: 100.0 mg/kg/injection, schedule: Q04DX003 (ip), vehicle: saline 91 % of control | dose: 200.0 mg/kg/injection, schedule: Q04DX003 (ip), vehicle: saline 100 % of control | dose: 400.0 mg/kg/injection, schedule: Q04DX003 (ip), vehicle: saline 87 % of control

CC(C)c1ccc(N2C=Nc3ccc(C(C)C)cc3C2)cc1
inactive: dose: 50.0 mg/kg/injection, schedule: Q01DX009 (ip), vehicle: other 92 % of control | dose: 100.0 mg/kg/injection, schedule: Q01DX009 (ip), vehicle: other 99 % of control | dose: 200.0 mg/kg/injection, schedule: Q01DX009 (ip), vehicle: other 99 % of control
